The record followed here is article PMC3234597, “Two Panels of Steroid Receptor Luciferase Reporter Cell Lines for Compound Profiling” (Combinatorial Chemistry & High Throughput Screening, 2011).

Common to all, as to type: cell-based
One experiment addresses T1, PR-LBD fused to Gal4-DBD (Homo sapiens, UniProt P06401).
T1 construct: PR-LBD region was PCR amplified using the following primer combination; host or cells: U2OS
T1 sequence (P06401 679-913 limits assumed): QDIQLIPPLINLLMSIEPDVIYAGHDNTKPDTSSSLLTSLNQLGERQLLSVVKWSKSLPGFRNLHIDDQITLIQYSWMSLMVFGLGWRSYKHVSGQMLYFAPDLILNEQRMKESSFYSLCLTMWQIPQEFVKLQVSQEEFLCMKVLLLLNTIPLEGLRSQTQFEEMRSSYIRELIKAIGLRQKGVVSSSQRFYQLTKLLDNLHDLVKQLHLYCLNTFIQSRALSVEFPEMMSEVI
Briefly: U2OS-PR-LBD/9xGal4UAS luciferase reporter cell line.

The next experiment concerns the target T2, human MR (full-length) (Homo sapiens, UniProt P08235).
T2 construct: expression vectors encoding full-length steroid receptors: pcDNA3-hAR, pcDNA3-hGR and pcDNA3-hMR; expressed in transfected cells; host or cells: U2OS
T2 sequence (P08235 1-984): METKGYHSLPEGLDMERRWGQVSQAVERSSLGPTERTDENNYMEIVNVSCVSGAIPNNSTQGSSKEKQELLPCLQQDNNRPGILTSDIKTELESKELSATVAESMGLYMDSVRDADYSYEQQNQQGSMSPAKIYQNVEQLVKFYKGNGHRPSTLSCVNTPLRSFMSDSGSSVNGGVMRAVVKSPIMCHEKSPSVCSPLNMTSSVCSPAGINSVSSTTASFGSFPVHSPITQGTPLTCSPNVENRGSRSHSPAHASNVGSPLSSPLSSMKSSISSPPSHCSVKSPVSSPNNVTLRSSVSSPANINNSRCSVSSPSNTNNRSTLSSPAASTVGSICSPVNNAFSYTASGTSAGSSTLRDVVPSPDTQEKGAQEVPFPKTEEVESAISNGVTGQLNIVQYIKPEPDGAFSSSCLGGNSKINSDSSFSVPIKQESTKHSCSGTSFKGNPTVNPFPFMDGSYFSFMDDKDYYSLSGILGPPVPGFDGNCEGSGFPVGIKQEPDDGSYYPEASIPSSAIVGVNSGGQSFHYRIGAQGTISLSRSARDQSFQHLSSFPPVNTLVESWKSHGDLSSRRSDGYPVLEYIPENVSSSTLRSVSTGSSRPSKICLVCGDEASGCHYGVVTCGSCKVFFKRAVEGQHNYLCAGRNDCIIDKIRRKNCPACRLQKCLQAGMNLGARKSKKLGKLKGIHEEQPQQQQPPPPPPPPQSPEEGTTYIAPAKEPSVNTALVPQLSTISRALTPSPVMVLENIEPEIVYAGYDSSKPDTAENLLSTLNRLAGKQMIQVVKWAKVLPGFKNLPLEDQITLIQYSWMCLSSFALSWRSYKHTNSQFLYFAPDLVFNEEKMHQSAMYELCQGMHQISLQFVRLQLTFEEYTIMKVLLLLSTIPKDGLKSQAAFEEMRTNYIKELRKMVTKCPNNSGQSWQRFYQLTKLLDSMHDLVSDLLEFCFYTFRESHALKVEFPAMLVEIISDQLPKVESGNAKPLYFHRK
Briefly: U2OS-MR/MMTV luciferase reporter cell line (full-length receptor). In general terms: Reporter assays use an easily measured gene product as a stand-in for the process of interest.

Another experiment deals with T3, MR-LBD fused to Gal4-DBD (Homo sapiens, UniProt P08235).
T3 construct: MR-LBD was cloned by RT-PCR from total RNA isolated from HEK293 cells; expressed in transfected cells; host or cells: U2OS
T3 sequence (P08235 726-964 limits assumed): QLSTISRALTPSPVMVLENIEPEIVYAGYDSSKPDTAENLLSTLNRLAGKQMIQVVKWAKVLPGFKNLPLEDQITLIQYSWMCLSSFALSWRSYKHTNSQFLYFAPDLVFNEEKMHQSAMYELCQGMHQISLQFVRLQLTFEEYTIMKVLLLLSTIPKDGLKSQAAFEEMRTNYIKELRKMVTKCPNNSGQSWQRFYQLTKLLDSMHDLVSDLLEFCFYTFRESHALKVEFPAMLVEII
The experiment can be described thus: U2OS-MR-LBD/9xGal4UAS luciferase reporter cell line.

For experiment [1], the target named is T4, human GR (full-length) (Homo sapiens, UniProt P04150).
T4 construct: expression vectors encoding full-length steroid receptors: pcDNA3-hAR and pcDNA3-hGR; host or cells: U2OS
T4 sequence (P04150 1-777): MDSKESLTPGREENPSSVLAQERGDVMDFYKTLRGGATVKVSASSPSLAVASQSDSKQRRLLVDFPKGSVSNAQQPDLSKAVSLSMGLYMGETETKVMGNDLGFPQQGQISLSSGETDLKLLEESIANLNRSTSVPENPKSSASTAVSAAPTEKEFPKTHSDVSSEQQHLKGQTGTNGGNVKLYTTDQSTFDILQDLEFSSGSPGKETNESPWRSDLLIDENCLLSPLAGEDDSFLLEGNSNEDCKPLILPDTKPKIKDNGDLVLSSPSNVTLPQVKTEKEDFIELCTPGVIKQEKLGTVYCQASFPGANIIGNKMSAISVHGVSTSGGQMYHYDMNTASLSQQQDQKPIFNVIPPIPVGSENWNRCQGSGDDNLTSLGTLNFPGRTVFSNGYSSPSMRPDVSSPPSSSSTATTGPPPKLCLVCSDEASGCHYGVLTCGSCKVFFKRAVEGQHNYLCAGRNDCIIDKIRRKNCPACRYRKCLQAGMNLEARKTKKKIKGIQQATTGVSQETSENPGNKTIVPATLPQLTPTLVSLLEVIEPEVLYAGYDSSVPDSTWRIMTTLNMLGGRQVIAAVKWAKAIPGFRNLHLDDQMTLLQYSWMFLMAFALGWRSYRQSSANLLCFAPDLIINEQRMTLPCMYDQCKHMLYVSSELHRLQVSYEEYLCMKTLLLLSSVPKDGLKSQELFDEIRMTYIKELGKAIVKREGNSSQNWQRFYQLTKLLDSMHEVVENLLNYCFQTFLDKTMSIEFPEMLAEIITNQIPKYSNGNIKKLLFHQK
Briefly: U2OS-GR/3xGRE luciferase reporter cell line (full-length receptor).

Experiment [2] concerns the target T4, human GR (full-length). Briefly: U2OS-GR/MMTV luciferase reporter cell line (full-length receptor).
The next experiment has as its target T5, GR-LBD fused to Gal4-DBD (Homo sapiens, UniProt P04150).
T5 construct: expressed in transfected cells; host or cells: U2OS
T5 sequence (P04150 524-758 limits assumed): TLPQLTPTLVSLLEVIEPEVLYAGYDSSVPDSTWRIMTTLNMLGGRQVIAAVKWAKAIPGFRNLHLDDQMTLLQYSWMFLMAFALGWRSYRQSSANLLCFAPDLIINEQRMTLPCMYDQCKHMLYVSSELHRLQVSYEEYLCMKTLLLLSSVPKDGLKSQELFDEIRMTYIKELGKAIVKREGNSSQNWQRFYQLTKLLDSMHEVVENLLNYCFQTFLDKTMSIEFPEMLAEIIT
Briefly: U2OS-GR-LBD/9xGal4UAS luciferase reporter cell line.

The target in experiment [3] is T6, ERβ-LBD fused to Gal4-DBD (Homo sapiens, UniProt Q92731).
T6 construct: region comprising ERβ-LBD and a piece of the hinge region; expressed in transfected cells; host or cells: U2OS
The experiment can be described thus: U2OS-ERβ-LBD/9xGal4UAS luciferase reporter cell line. The conditions noted are these: read-out: Log EC50 (converted).

The target in the next experiment is T7, human ERβ (full-length) (Homo sapiens, UniProt Q92731).
T7 construct: expression vectors encoding full-length steroid receptors: pcDNA3-hERα and pcDNA3-ERβ; expressed in transfected cells; host or cells: U2OS
The experiment can be described thus: U2OS-ERβ/3xERE luciferase reporter cell line (full-length receptor). The conditions noted are these: read-out: Log EC50 (converted).

Setting [4] is: antagonist mode, PR-LBD/9xGal4UAS, log10 of molar IC50, mean ± SEM, read-out: Log IC50 (converted).

Each structure is given as a SMILES string. “Also recorded” adds a separate entry of the source. Counter-ions that a name gives are not always drawn. Like-named read-outs stand apart in the source and are kept apart here.

T6 sequence (Q92731 264-498 limits assumed): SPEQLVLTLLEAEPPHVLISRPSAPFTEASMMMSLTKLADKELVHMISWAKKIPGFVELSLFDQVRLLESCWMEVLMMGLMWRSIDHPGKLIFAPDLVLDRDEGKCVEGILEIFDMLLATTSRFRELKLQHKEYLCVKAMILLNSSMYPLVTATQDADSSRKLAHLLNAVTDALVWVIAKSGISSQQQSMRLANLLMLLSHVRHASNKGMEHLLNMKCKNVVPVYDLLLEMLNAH
T7 sequence (Q92731 whole entry): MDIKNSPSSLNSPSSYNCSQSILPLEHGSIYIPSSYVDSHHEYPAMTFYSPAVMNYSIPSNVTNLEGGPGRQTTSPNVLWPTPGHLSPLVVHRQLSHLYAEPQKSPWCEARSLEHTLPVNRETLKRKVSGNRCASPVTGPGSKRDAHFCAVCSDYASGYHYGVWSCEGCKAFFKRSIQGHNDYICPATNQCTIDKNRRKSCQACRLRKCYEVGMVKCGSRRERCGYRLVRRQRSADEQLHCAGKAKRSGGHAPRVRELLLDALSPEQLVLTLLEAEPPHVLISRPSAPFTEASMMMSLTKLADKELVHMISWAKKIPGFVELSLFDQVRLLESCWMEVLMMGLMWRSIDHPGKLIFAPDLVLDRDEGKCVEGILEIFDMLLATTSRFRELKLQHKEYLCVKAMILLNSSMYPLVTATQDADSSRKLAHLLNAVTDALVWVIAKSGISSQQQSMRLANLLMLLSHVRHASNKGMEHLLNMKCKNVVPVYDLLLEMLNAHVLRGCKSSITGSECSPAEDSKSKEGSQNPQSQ

For `C[C@@H]1C[C@H]2[C@@H]3CCC4=CC(=O)C=C[C@]4(C)[C@@]3(F)[C@@H](O)C[C@]2(C)[C@@]1(O)C(=O)CO` [Dexamethasone, dexamethasone], the IC50 at PR-LBD fused to Gal4-DBD (setting [4]) is > 10 µM. Further, the EC50 on PR-LBD fused to Gal4-DBD (read-out: Log EC50 (converted)) is 4.79 µM. The “activity profile in words” value was “no sign of antagonistic activity” at human MR (full-length) (full-length MR format, antagonist mode); “only weakly and partially activated; also recorded: pronounced full antagonist effect” at MR-LBD fused to Gal4-DBD (MR-LBD expressing reporter cell line, agonist and antagonist mode).
Regarding `C[C@]12CCC(=O)C[C@@H]1CC[C@@H]1[C@@H]2CC[C@]2(C)[C@@H](O)CC[C@@H]12` [Dihydrotestosterone, 5α-androstan-17β-ol-3-one], the EC50 at PR-LBD fused to Gal4-DBD was 0.398 µM; on human MR (full-length), > 10 µM; on MR-LBD fused to Gal4-DBD it was > 10 µM. At PR-LBD fused to Gal4-DBD, the IC50 was > 10 µM.
As to `CC#C[C@]1(O)CC[C@H]2[C@@H]3CCC4=CC(=O)CCC4=C3[C@@H](c3ccc(N(C)C)cc3)C[C@@]21C` [Mifepristone (RU486), mifepristone], the “activity profile in words” value on human GR (full-length) [1] (full-length GR reporter cell line U2OS-GR/3xGRE) was “partial agonist/full antagonist”; at human GR (full-length) [2] (full-length GR reporter cell line U2OS-GR/MMTV) it was “partial agonist/full antagonist”; on GR-LBD fused to Gal4-DBD (GR LBD format (U2OS-GR-LBD/9xGal4UAS)), “very potent pure full antagonist”.
Turning to `CC1(C)NC(=O)N(c2ccc([N+](=O)[O-])c(C(F)(F)F)c2)C1=O` [Nilutamide, nilutamide], the IC50 at PR-LBD fused to Gal4-DBD (setting [4]) is > 10 µM. In addition, the EC50 (on PR-LBD fused to Gal4-DBD (read-out: Log EC50 (converted)); in experiment [3]; on human MR (full-length) (read-out: Log EC50 (converted)); on human ERβ (full-length); on MR-LBD fused to Gal4-DBD (read-out: Log EC50 (converted))) was > 10 µM throughout.
In the case of `O=C(c1ccc(OCCN2CCCCC2)cc1)c1c(-c2ccc(O)cc2)sc2cc(O)ccc12` [Raloxifene hydrochloride, raloxifene hydrochloride], the EC50 at human MR (full-length) (read-out: Log EC50 (converted)) and on MR-LBD fused to Gal4-DBD (read-out: Log EC50 (converted)) was > 10 µM throughout.
For `CC/C(=C(\c1ccccc1)c1ccc(OCCN(C)C)cc1)c1ccccc1` [Tamoxifen citrate, tamoxifen citrate], the EC50 on human GR (full-length) [1] (read-out: Log EC50 (converted)), on human MR (full-length) (read-out: Log EC50 (converted)), at human GR (full-length) [2] (read-out: Log EC50 (converted)), at GR-LBD fused to Gal4-DBD (read-out: Log EC50 (converted)) and at MR-LBD fused to Gal4-DBD (read-out: Log EC50 (converted)) was > 10 µM throughout.

Usually IC50 stands for the point on the concentration scale where inhibition reaches its midpoint. Broadly, the EC50 is the concentration that produces a half-maximal response.
